Columns and labels:
[1] = Lipophilic-hydrophilic balance, Rm of the compound by reversed-phase chromatographic analysis; format: physicochemical
[2] = test system: P388; assay: Antitumor activity against mouse P388 cells allografted in ip dosed BDF1 mouse at optimum dose administered qd for 5 days relative to control; format: functional
[3] = species: Bos taurus; assay: Displacement of ethidium bromide from calf thymus DNA by spectrofluorometric analysis
[4] = Toxicity in ip dosed BDF1 mouse allografted with mouse P388 cells administered qd for 5 days; format: organism-based; details: BDF1, mouse, in vivo

Compound | Rm [1] | ILS [2] [%] | C50 [3] [µM] | MTD at 120 h [4] [mg/kg/day]
COc1cc(NS(=O)(=O)CCCCS(=O)(=O)Nc2ccc(Nc3c4ccccc4nc4c(C(N)=O)cccc34)c(OC)c2)ccc1Nc1c2ccccc2nc2c(C(N)=O)cccc12.Cl.O | -0.64 | >25 | 0.068 | 11
O.c1ccc(OCCCNc2ccnc3ccccc23)c(Nc2c3ccccc3nc3ccccc23)c1 | -0.19 | >25 | 2.7 | 50
Cl.O.c1ccc(OCCOc2ccccc2Nc2c3ccccc3nc3ccccc23)c(Nc2c3ccccc3nc3ccccc23)c1 | 0.17 | >25 | 0.4 | 125
CCN(CC)CCCC(C)Nc1ccnc2cc(Cl)ccc12.Cl (stereo unspecified) | – | >25 | 11 | 40
Cl.c1ccc(OCCCCOc2ccccc2Nc2ccnc3ccccc23)c(Nc2ccnc3ccccc23)c1 | -0.1 | >25 | 9.2 | 25
Cl.O=S(=O)(CCCCCCNc1c2ccccc2nc2ccccc12)Nc1ccc(Nc2c3ccccc3nc3ccccc23)cc1 | 0.08 | >25 | 0.21 | 150
Cl.c1ccc(OCCCCCCCCCCOc2ccccc2Nc2c3ccccc3nc3ccccc23)c(Nc2c3ccccc3nc3ccccc23)c1 | 0.92 | >25 | 8 | > 500
Cl.c1ccc(OCCCCCCCCCOc2ccccc2Nc2c3ccccc3nc3ccccc23)c(Nc2c3ccccc3nc3ccccc23)c1 | 0.85 | >25 | 3.3 | > 500
Cl.O.c1ccc(OCCCCCCCNc2ccnc3ccccc23)c(Nc2c3ccccc3nc3ccccc23)c1 | 0.52 | >25 | 0.71 | 25
c1ccc2c(NCCCCCCCCCCCCCCNc3c4ccccc4nc4ccccc34)c3ccccc3nc2c1 | 0.82 | >25 | 0.14 | –
Cl.c1ccc(OCCCCCOc2ccccc2Nc2c3ccccc3nc3ccccc23)c(Nc2c3ccccc3nc3ccccc23)c1 | 0.6 | >25 | 1.4 | > 500
Cl.c1ccc(OCCCCCCCOc2ccccc2Nc2c3ccccc3nc3ccccc23)c(Nc2c3ccccc3nc3ccccc23)c1 | 0.75 | >25 | 3.8 | > 500
Cl.O.c1ccc(OCCCCNc2ccnc3ccccc23)c(Nc2c3ccccc3nc3ccccc23)c1 | -0.07 | >25 | 2.6 | 20
Cl.c1ccc(OCCCCOc2ccccc2Nc2c3ccccc3nc3ccccc23)c(Nc2c3ccccc3nc3ccccc23)c1 | 0.53 | >25 | 0.8 | > 500
Cl.Nc1c2ccccc2nc2ccccc12 [AMINACRINE HYDROCHLORIDE] | -0.08 | >25 | 8.1 | 12.5
Cl.O.c1ccc(OCCCCCNc2ccnc3ccccc23)c(Nc2c3ccccc3nc3ccccc23)c1 | 0.23 | >25 | 1.9 | 17
CCN(CC)CCCC(C)Nc1c2ccc(Cl)cc2nc2ccc(OC)cc12.CS(C)(=O)=O (stereo unspecified) | – | >25 | 0.51 | 90
Cl.c1ccc(OCCCCCCCCOc2ccccc2Nc2c3ccccc3nc3ccccc23)c(Nc2c3ccccc3nc3ccccc23)c1 | 0.82 | >25 | 9 | > 500
CS(=O)(=O)Nc1ccc(Nc2c3ccccc3nc3c(C(N)=O)cccc23)c(OCCCCOc2cc(NS(C)(=O)=O)ccc2Nc2c3ccccc3nc3c(C(N)=O)cccc23)c1.Cl.O | -0.87 | >25 | 0.72 | 275
c1ccc2c(NCCCCCCCCCCCCCCCCNc3c4ccccc4nc4ccccc34)c3ccccc3nc2c1 | 0.88 | >25 | 0.23 | –

Reference: ChEMBL document CHEMBL3272039, “Potenial antitumor agents. 28. Deoxyribonucleic acid polyintercalating agents” (J Med Chem, 1978)
